From ChEMBL document CHEMBL5728699, “Macrocyclic compounds for treatment of medical disorders” (2021)

Molecular target: Complement factor D (Homo sapiens, UniProt P00746)
Assay: Human Factor D Assay: Human Factor D (purified from human serum, Complement Technology, Inc.) at 80 nM final concentration is incubated with test compound at various concentrations for 5 min at room temperature in 50 mM Tris, 1M NaCl, pH 7.5. A synthetic substrate Z-L-Lys-SBzl and DTNB (Ellman's reagent) are added to final concentrations of 100 µM each. Absorbance at 405 nm (A405) is recorded at 30 second intervals for 30 minutes using a microplate spectrophotometer. IC50 values are calculated by nonlinear regression of Complement Factor D reaction rates as a function of test compound concentration.

Chain of Complement factor D (P00746 whole entry): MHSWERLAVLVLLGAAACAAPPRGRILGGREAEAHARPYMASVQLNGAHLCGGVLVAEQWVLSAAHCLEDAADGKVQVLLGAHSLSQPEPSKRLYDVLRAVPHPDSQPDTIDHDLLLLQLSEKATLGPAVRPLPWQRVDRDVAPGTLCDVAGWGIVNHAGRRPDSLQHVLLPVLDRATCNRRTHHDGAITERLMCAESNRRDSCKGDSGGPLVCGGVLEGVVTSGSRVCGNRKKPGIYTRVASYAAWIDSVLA

Compound | IC50
CC(=O)c1nn(CC(=O)N2[C@H]3C[C@@]4(/C=C\CCCCN(C)C(=O)Cc5ccc(Br)nc5NC3=O)C[C@@H]24)c2ccc(-c3cnc(C)nc3)cc12 | < 1000 nM
C=C1COCc2ccc(Br)nc2NC(=O)[C@@H]2C[C@]3(C[C@H]3N2C(=O)Cn2nc(C(C)=O)c3cc(-c4cnc(C)nc4)ncc32)Cn2cc1cn2 | < 1000 nM
CC(=O)c1nn2c3c(cc(-c4cnc(C)nc4)cc13)C/C=C\CCCC(=O)NC[C@@]13C[C@@H](C(=O)Nc4nc(Br)ccc4C)N(C(=O)C2)[C@@H]1C3 | < 1000 nM
CC(=O)c1nn2c3c(cc(-c4cnc(C)nc4)cc13)CC/C=C\CCCC(=O)NC[C@@]13C[C@@H](C(=O)Nc4nc(Br)ccc4C)N(C(=O)C2)[C@@H]1C3 | < 1000 nM
CC(=O)c1nn2c3c(cc(-c4cnc(C)nc4)cc13)CCCCCC/C=C\c1cn(nn1)C[C@@]13C[C@@H](C(=O)Nc4nc(Br)ccc4C)N(C(=O)C2)[C@@H]1C3 | < 1000 nM
CC(=O)N[C@H]1C/C=C\COCc2ccc(Br)nc2NC(=O)[C@@H]2C[C@@]3(CNC1=O)C[C@H]3N2C(=O)Cn1nc(C(C)=O)c2cc(-c3cnc(C)nc3)ccc21 | < 1000 nM
CC(=O)c1nn(CC(=O)N2[C@H]3C[C@]4(C[C@@H]24)CN(C)CC(O)C(O)COCc2ccc(Br)nc2NC3=O)c2cnc(-c3cnc(C)nc3)cc12 (stereo not given in full) | < 1000 nM
CC(=O)c1nn2c3c(cc(-c4cnc(C)nc4)cc13)C/C=C\CCCC(=O)NC[C@@]13C[C@@H](C(=O)Nc4nc(C(F)(F)F)ccc4C)N(C(=O)C2)[C@@H]1C3 | < 1000 nM
CC(=O)c1nn(CC(=O)N2[C@H]3C[C@]4(C[C@@H]24)CN(C)CCCC/C=C\Cc2ccc(Br)nc2NC3=O)c2c(CF)cc(-c3cnc(C)nc3)cc12 | < 1000 nM
CC(=O)c1nn(CC(=O)N2[C@H]3C[C@]4(C[C@@H]24)CN2CC(CCCOCc4ccc(Br)nc4NC3=O)C2)c2c(C)cc(-c3cnc(C)nc3)cc12 | < 1000 nM
